Drawing on ChEMBL document CHEMBL4699447, “Initial Analysis of the Arylomycin D Antibiotics” (2020), this text covers MIC for 6 molecules.

As a reminder, the MIC is the smallest concentration in the dilution series that meets the test's criterion for growth inhibition.

What all share (type): functional
The subject of assay [1] is Escherichia coli. Kind of assay: Antimicrobial activity against Escherichia coli IMP BAS901 assessed as reduction in microbial growth after 24 hrs by CLSI based broth microdilution method. Background: Broth dilution looks for growth in wells or tubes with falling amounts of substance.
The test system of a further assay is Staphylococcus aureus. Nature of the assay: Antimicrobial activity against methicillin-resistant Staphylococcus aureus USA300 assessed as reduction in microbial growth after 24 hrs by CLSI based broth microdilution method.
For assay [2], the system named is Staphylococcus epidermidis. Kind of assay: Antimicrobial activity against Staphylococcus epidermidis RP62A assessed as reduction in microbial growth after 24 hrs by CLSI based broth microdilution method.
In a further assay the test system is Yersinia pestis. Kind of assay: Antimicrobial activity against Yersinia pestis KIM6+ assessed as reduction in microbial growth after 24 hrs by CLSI based broth microdilution method.
Assay [3] concerns Escherichia coli. Nature of the assay: Antimicrobial activity against Escherichia coli K-12 assessed as reduction in microbial growth after 24 hrs by CLSI based broth microdilution method.

Turning to `CCCCCCCCCCCCCCCC(=O)NCCC(=O)N[C@@H](CS(=O)(=O)O)C(=O)N(C)[C@@H]1C(=O)N[C@@H](C)C(=O)N[C@H](C(=O)O)Cc2ccc(O)c(c2)-c2cc1ccc2O`, the MIC in the assay on Escherichia coli [1] was over 64 µg/mL; in the assay with Staphylococcus aureus it was 16 µg/mL; in assay [2], 4 µg/mL; with Yersinia pestis, 2 µg/mL; with Escherichia coli [3] it was over 64 µg/mL.

As to `CCCCCCCCCCCCCCCC(=O)NCCC(=O)N[C@@H](CS(=O)(=O)O)C(=O)N(C)[C@@H]1C(=O)N[C@@H](C)C(=O)N[C@H](C(=O)O)Cc2ccc(OS(=O)(=O)O)c(c2)-c2cc1cc(OS(=O)(=O)O)c2O[C@@H]1O[C@@H](C)[C@H](O)[C@@H](O)[C@H]1O`, the MIC (in the assay with Escherichia coli [1]; in the assay with Staphylococcus aureus; in assay [2]; in the assay on Yersinia pestis) was over 64 µg/mL throughout.

`CCCCCCCCCCCCCCCC(=O)NCCC(=O)N[C@H](CS(=O)(=O)O)C(=O)N(C)[C@@H]1C(=O)N[C@@H](C)C(=O)N[C@H](C(=O)O)Cc2ccc(OS(=O)(=O)O)c(c2)-c2cc1cc(OS(=O)(=O)O)c2O[C@@H]1O[C@@H](C)[C@H](O)[C@@H](O)[C@H]1O`: the MIC (with Escherichia coli [1]; with Staphylococcus aureus; in assay [2]; with Yersinia pestis) was over 64 µg/mL in each case.

For `CCCCCCCCCCCCCCCC(=O)N(C)[C@H](CO)C(=O)N[C@H](C)C(=O)NCC(=O)N(C)[C@@H]1C(=O)N[C@@H](C)C(=O)N[C@H](C(=O)O)Cc2ccc(OS(=O)(=O)O)c(c2)-c2cc1cc(OS(=O)(=O)O)c2O[C@@H]1O[C@@H](C)[C@H](O)[C@@H](O)[C@H]1O`, the MIC (in the assay with Escherichia coli [1]; in the assay with Staphylococcus aureus; in assay [2]; in the assay with Yersinia pestis) was over 64 µg/mL in each case.

Regarding `CCCCCCCCCCCCCCCC(=O)NCCC(=O)N[C@@H](CS(=O)(=O)O)C(=O)N(C)[C@@H]1C(=O)N[C@@H](C)C(=O)N[C@H](C(=O)O)Cc2ccc(O)c(c2)-c2cc1cc(O)c2O[C@@H]1O[C@@H](C)[C@H](O)[C@@H](O)[C@H]1O`, the MIC in the assay on Escherichia coli [1] is 64 µg/mL; in the assay with Staphylococcus aureus, 32 µg/mL; in assay [2], 8 µg/mL; in the assay with Yersinia pestis it was 4 µg/mL; in the assay with Escherichia coli [3], over 64 µg/mL.

With `CCCCCCCCCCCCCCCC(=O)N(C)[C@H](CO)C(=O)N[C@H](C)C(=O)NCC(=O)N(C)[C@@H]1C(=O)N[C@@H](C)C(=O)N[C@H](C(=O)O)Cc2ccc(O)c(c2)-c2cc1ccc2O` [ARYLOMYCIN C16], the MIC is 16 µg/mL in the assay with Escherichia coli [1], over 64 µg/mL in the assay on Staphylococcus aureus, 0.25 µg/mL in assay [2] and over 64 µg/mL in the assay on Escherichia coli [3].
